In patent publication US20240059688A1, “CONOLIDINE ANALOGUES AS SELECTIVE ACKR3 MODULATORS FOR THE TREATMENT OF CANCER” (Luxembourg Institute of Health (LIH), priority 2020, published 2024):

Legend:
Assay type in all cases: cell-based
ACKR4 = biological target: T1, ACKR4 (Homo sapiens, UniProt Q9NPB9); assay: NanoBiT β-arrestin-1 recruitment, receptor selectivity panel, ACKR4; conditions: higher concentrations (3 μM, 10 μM); FIG. 3 sections B and C
T1 construct: expressed in transfected cells; host or cells: U87
T1 sequence (Q9NPB9 1-350): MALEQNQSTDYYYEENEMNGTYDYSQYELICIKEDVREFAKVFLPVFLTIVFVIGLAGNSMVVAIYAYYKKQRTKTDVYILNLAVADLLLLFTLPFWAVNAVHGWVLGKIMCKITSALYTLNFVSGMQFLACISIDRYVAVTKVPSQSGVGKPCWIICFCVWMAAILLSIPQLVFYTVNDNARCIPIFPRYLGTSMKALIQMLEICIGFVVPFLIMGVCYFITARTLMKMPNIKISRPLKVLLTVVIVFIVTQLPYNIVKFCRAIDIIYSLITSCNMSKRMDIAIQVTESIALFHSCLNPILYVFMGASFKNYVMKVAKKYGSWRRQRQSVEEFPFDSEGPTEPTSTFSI
Procedure: To further assess the selectivity profile of the compounds of the invention towards ACKR3, the ability to activate the 21 classical and 4 atypical chemokines receptors and related receptors was tested using the NanoBiT assay based β-arrestin-1 recruitment described previously. The 4 classical opioid receptors described above were also included in the experimental setup. The compounds WW-1 (conolidine) and WW-12 were tested at three different concentrations, 1 μM, 3 μM and 10 μM.
This possible off-target effect was further characterized by comparing the ability of the two molecules to activate receptors ACKR4, CX3CR1 and CCR3 with reference ligands for the receptors, namely CCL19, CX3CL1 and CCL13.
Ligand-induced β-arrestin recruitment to chemokine and opioid receptors was monitored by NanoLuc complementation assay (NanoBiT, Promega). […] Ligand-induced, β-arrestin to GPCRs was evaluated with a Mithras LB940 luminometer (Berthold Technologies, running on MicroWin 2010 5.19 software (Mikrotek Laborsysteme)) for 20 minutes.
For single dose screening experiments on all chemokine receptors(FIG. 3), the results are represented as percentage of signal monitored with 100 nM of one known agonist chemokine listed in the IUPHAR repository of chemokine receptor ligands which was added as positive control.

ACKR3 = ACKR3 (Homo sapiens, UniProt P25106); assay: Ligand-induced ACKR3 delivery to early endosomes (NanoBRET, U87 cells); parameters: expressed in transfected cells; host or cells: U87-ACKR3 (ACKR3-negative U87 as control); conditions: ACKR3-Nanoluciferase / FYVE-mNeonGreen, FIG. 6 section B
Procedure: Ligand-induced receptor-arrestin delivery to early endosomes was monitored by NanoBRET. In brief, 1.2×10^6 U87 cells were seeded in 10-cm dishes and co-transfected with plasmids encoding ACKR3, C-terminally tagged with Nanoluciferase and FYVE domain of endofin interacting with phosphatidylinositol 3-phosphate (PI3P) in early endosomes46,47, N-terminally tagged with mNeonGreen. 48h post-transfection, cells were distributed into black 96-well plates (1×10^5 cells per well) and treated with full-length or processed chemokines. After 2-hour incubation at 37° C., coelenterazine H (10 μM) was added and donor emission (460 nm) and acceptor emission (535 nm) were immediately measured on a GloMax plate reader (Promega).

DOR = DOR (Homo sapiens, UniProt P41143); assay: DOR calcium mobilization agonist/antagonist screen (CHO-RD-HGA16 cells); parameters: host or cells: CHO-RD-HGA16; conditions: single concentration; for Emax: CHO-RD-HGA16, agonist screen, control agonist DPDPE
Procedure: Compounds were evaluated for kappa (KOR), mu (MOR), and delta (DOR) opioid receptor agonist and antagonist activity in three individual cell lines overexpressing Gαq16 (CHO-RD-HGA16, Molecular Devices) and the human kappa, mu, and delta opioid receptors, respectively. The day before the assay, cells were plated into 96-well black-walled assay plates at 30,000 cells/well in Ham's F12 supplemented with 10% fetal bovine serum, and 100 units of penicillin and streptomycin. The cells were incubated overnight at 37° C., 5% CO2. Prior to the assay, Calcium 5 dye (Molecular Devices) was reconstituted according to the manufacturer's instructions. The reconstituted dye was diluted 1:40 in pre-warmed (37° C.) assay buffer (1×HBSS, 20 mM HEPES, 2.5 mM probenecid, pH 7.4 at 37° C.). Growth medium was removed and the cells were gently washed with 100 μL of pre-warmed (37° C.) assay buffer. The cells were incubated for 45 minutes at 37° C., 5% CO2 in 200 μL of the diluted Calcium 5 dye. For the agonist screen, a single concentration of each test compound and receptor-specific controls (U69,593, DAMGO, and DPDPE for KOR, MOR, and DOR, respectively) were prepared at 10× the desired final concentration in 1% DMSO/assay buffer, aliquoted into a 96-well polystyrene plate, and warmed to 37° C. After the dye-loading incubation period, pretreatment solution was added to each well (25 μL of 9% DMSO/assay buffer) and, after 15 min, the plate was read with a FlexStation II (Molecular Devices). Calcium-mediated changes in fluorescence were monitored every 1.52 seconds over a 60 second time period, with the FlexStation II adding 50 μL of test compounds at the 19 second time point (excitation at 485 nm, detection at 525 nm). Peak kinetic reduction (SoftMax, Molecular Devices) relative fluorescence units (RFU) were used to calculate % control agonist Emax with the equation % Emax=(test compound RFU/control agonist RFU)×100. For the antagonist screens, the same procedure was followed except that the pretreatment solution consisted of the test compounds (prepared at […] the desired final concentration in 9% DMSO/assay buffer) and the FlexStation added the EC60 concentration (prepared at 10× the desired final concentration in 1% DMSO/assay buffer) of each respective control agonist. Peak RFU were used to calculate % control EC60 inhibition with the equation % inhibition=((EC60 RFU−test compound RFU)/EC60 RFU)×100. When IC50 determinations were made, the same antagonist screen procedure was followed except that cells were pretreated with 8-pt concentration-response curves of the test compounds. Peak RFU were plotted against the log of compound concentration using non-linear regression analysis to generate IC50 values (GraphPad Prism). Each test sample was analyzed in duplicate in two independent experiments.

Chain of DOR (P41143 whole entry): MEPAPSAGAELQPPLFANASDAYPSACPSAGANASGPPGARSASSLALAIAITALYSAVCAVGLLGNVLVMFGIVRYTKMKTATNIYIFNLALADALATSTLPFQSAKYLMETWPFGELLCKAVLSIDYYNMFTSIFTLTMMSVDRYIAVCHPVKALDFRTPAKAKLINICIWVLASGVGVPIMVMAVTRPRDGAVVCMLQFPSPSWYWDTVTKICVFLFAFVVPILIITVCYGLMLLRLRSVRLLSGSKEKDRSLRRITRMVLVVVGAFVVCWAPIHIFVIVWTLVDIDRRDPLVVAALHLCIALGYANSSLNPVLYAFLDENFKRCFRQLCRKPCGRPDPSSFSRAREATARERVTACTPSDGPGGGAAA
Chain of ACKR3 (P25106 whole entry, the tested form may be a part): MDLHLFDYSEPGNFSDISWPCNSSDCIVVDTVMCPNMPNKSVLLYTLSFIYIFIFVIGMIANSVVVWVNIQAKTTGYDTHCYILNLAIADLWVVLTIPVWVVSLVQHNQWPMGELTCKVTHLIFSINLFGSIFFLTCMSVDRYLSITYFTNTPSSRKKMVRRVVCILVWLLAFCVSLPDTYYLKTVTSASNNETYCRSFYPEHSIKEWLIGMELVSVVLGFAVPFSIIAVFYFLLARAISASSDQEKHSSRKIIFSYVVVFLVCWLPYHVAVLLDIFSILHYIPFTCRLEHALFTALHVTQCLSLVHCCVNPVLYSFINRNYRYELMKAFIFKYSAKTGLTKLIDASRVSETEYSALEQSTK

SMILES | activation of ACKR4 (β-arrestin-1 recruitment) in receptor panel (ACKR4) | ACKR3 delivery to the endosomes (ACKR3) | Emax (DOR) [%] | DOR Calcium % DPDPE Inhibition (DOR; antagonist screen, vs EC60 of DPDPE) [%]
C/C=C1/CN2CC[C@H]1C(=O)c1[nH]c3ccccc3c1C2 [WW-1, (4E,5R)-4-ethylidene-1,4,5,7-tetrahydro-2,5-ethanoazocino[4,3-b]indol-6(3H)-one] | weak activation | delivery to the endosomes | 0 | 22
C/C=C1/CN(CCCCC)CC[C@H]1C(=O)c1cc2ccccc2[nH]1 [WW-12, [(3E,4R)-3-ethylidene-1-pentylpiperidin-4-yl](1H-indol-2-yl)methanone] | weak activation | delivery to the endosomes | 6 | –
